# Key:
# [1] = molecular target: Muscarinic acetylcholine receptor; assay: Binding affinity against Muscarinic acetylcholine receptor was determined in homogenized rat cortex tissue using [3H]N-methylscopolamine as radioligand
# [2] = Binding affinity against imipramine receptor was determined in homogenized rat cortex tissue using [3H]-imipramine as radioligand
SMILES,Ki [1] [nM],Ki [2] [nM]
CN(C)CCCN1c2ccccc2CCc2ccccc21 [IMIPRAMINE],65,12
CN(C)CCC(=O)N1c2ccccc2CCc2ccccc21,240,400
CN1CCN(CC(=O)N2c3ccccc3NC(=O)c3ccccc32)CC1,23,> 100000
CN1CCN(CC(=O)N2c3ccccc3C(=O)Nc3cccnc32)CC1 [PIRENZEPINE],–,> 100000
CN1CCN(CC(=O)N2c3ccccc3CCc3ccccc32)CC1,200,> 100000

# Now from value to compound:
Ki [1] [nM],Ki [2] [nM],SMILES
50,4000,CN(C)CCCN1c2ccccc2NC(=O)c2ccccc21
45,> 100000,CN(C)CCC(=O)N1c2ccccc2C(=O)Nc2cccnc21
6,> 100000,CN(C)CCC(=O)N1c2ccccc2NC(=O)c2ccccc21
200,15000,CN(C)CCCN1c2ccccc2C(=O)Nc2cccnc21
